Read-outs that look alike come from different tables or passages of the source.

This is an account of results in patent US8481546B2, “CGRP receptor antagonist” (Bristol-Myers Squibb Company, priority 2010, dated 2013).

The subject of data set [1] is olfactory epithelium (nasal tissues). Description: One-week comparative intranasal irritation study in rats (Compound I vs Compound III): nasal histology and tolerability. In kind it is in vivo. As to conditions: 1 week. The protocol:
This study was conducted to compare potential nasal irritation of Compound I to Compound III when given intranasally to male rats for 1 week. Male rats (10/group) were instilled intranasally with Compound I or Compound III solutions ([…] in 225 mM succinic acid, 0.02% benzalkonium chloride, 1.25% anhydrous dextrose, pH 5.8-6.2) once daily at a dose volume of 100 μL/nostril. Using this dosing paradigm, fixed doses of 5, 15 or 35 mg of test article were delivered daily. As a consequence, dosages normalized to body weight decreased with time as the rats grew. One control group was given succinate vehicle and a sham control group was given saline by intranasal instillation. Parameters evaluated included clinical observations, body weight, food consumption, toxicokinetics, and histological evaluation of nasal tissues.

The test system of data set [2] is olfactory epithelium (nasal turbinates). The format is in vivo, rats. From the text: Compound I and Compound II were also compared directly for intranasal irritation. […] The only endpoint evaluated in this study was histological evaluation of the nasal turbinates.
[3] abbreviates: nasal instillation 5 mg (0.357 mg/cm^2) once daily.
The mark [4] stands for this setting: nasal instillation 15 mg (1.07 mg/cm^2) once daily.
[5] abbreviates: nasal instillation 35 mg (2.50 mg/cm^2) once daily.
[6] abbreviates: 12.5 μL/nostril, 75 mg/ml, 1.875 mg/rat/day (0.134 mg/cm^2).
Where [7] appears, read: 12.5 μL/nostril, 175 mg/ml, 4.375 mg/rat/day (0.313 mg/cm^2).
The mark [8] stands for this setting: 25 μL/nostril, 75 mg/ml, 3.75 mg/rat/day (0.268 mg/cm^2).
The mark [9] stands for this setting: 25 μL/nostril, 175 mg/ml, 8.75 mg/rat/day (0.625 mg/cm^2).
Setting [10] is: 100 μL/nostril, 75 mg/ml, 15 mg/rat/day (1.071 mg/cm^2).
Where [11] appears, read: 100 μL/nostril, 175 mg/ml, 35 mg/rat/day (2.500 mg/cm^2).

With `Cc1cc(C[C@@H](NC(=O)N2CCC(c3cc4ccccc4[nH]c3=O)CC2)C(=O)N2CCC(N3CCCCC3)CC2)cc2cn[nH]c12` [Compound III, reference compound], in data set [1] (setting [3]), the “Olfactory Epithelial Atrophy, incidence of severity Marked (number of rats)” value came to 0; the “Olfactory Epithelial Atrophy, incidence of severity Mild (number of rats)” value was 2; the “Olfactory Epithelial Atrophy, incidence of severity Minimal (number of rats)” value was found to be 6; the “Olfactory Epithelial Atrophy, incidence of severity Moderate (number of rats)” value is given as 0. The “Olfactory Epithelial Atrophy, incidence of severity None (number of rats)” value in data set [1] (setting [3]) was 1. Also, in data set [1] (setting [4]), the “Olfactory Epithelial Atrophy, incidence of severity Marked (number of rats)” value turned out to be 0; the “Olfactory Epithelial Atrophy, incidence of severity Mild (number of rats)” value was determined as 2; the “Olfactory Epithelial Atrophy, incidence of severity Minimal (number of rats)” value stood at 0; the “Olfactory Epithelial Atrophy, incidence of severity Moderate (number of rats)” value is 6. Besides, the “Olfactory Epithelial Atrophy, incidence of severity None (number of rats)” value in data set [1] (setting [4]) is given as 1. In data set [1] (setting [5]), the “Olfactory Epithelial Atrophy, incidence of severity Marked (number of rats)” value is 1; the “Olfactory Epithelial Atrophy, incidence of severity Mild (number of rats)” value was found to be 2; the “Olfactory Epithelial Atrophy, incidence of severity Minimal (number of rats)” value was found to be 0; the “Olfactory Epithelial Atrophy, incidence of severity Moderate (number of rats)” value stood at 3. In data set [1] (setting [5]), the “Olfactory Epithelial Atrophy, incidence of severity None (number of rats)” value turned out to be 3.
Consider `Cc1cc(C[C@@H](NC(=O)N2CCC(C3Cc4cccc(F)c4NC3=O)CC2)C(=O)N2CCC(N3CCCCC3)CC2)cc2cn[nH]c12` (stereo partly shown) [Compound II], for which the “Olfactory epithelial toxicity, number of animals with severity Mild” value in data set [2] (setting [6]) came to 1; in data set [2] (setting [7]), 1; in data set [2] (setting [10]), 1; in data set [2] (setting [11]), 2. Also, the “Olfactory epithelial toxicity, number of animals with severity None” value in data set [2] (setting [6]) worked out at 3; in data set [2] (setting [7]), 3; in data set [2] (setting [8]), 2; in data set [2] (setting [9]) it was 1. For the same compound, the “Olfactory epithelial toxicity, number of animals with severity Slight” value in data set [2] (setting [6]) is recorded as 1; in data set [2] (setting [8]) it was 1; in data set [2] (setting [9]), 1; in data set [2] (setting [10]), 4. Further, the entries for the “Olfactory epithelial toxicity, number of animals with severity Minimal” value in data set [2] (setting [7]), in data set [2] (setting [8]) and in data set [2] (setting [9]) were 1, 2 and 3, respectively. In addition, the “Olfactory epithelial toxicity, number of animals with severity Moderate” value in data set [2] (setting [11]) was found to be 3.
